Data: patent publication US20260242350A1, “POLYCYCLIC THYROID HORMONE BETA RECEPTOR AGONIST AND USE THEREOF” (CASCADE PHARMACEUTICALS, INC., priority 2023, published 2026)
pEC50: −log10 of the molar value.

Experiments:
[1] = target: T1, THRα LBD (His-GST-dLBT-THRα LBD) (Homo sapiens, UniProt P10827); assay: THR-FRET (time-resolved fluorescence resonance energy transfer) agonist activity assay, THRα; format: biochemical; conditions: 24 h at room temperature
T1 construct: made in house; host or cells: E. coli BL21 (DE3)
T1 sequence (P10827 163-407 isoform P10827-2): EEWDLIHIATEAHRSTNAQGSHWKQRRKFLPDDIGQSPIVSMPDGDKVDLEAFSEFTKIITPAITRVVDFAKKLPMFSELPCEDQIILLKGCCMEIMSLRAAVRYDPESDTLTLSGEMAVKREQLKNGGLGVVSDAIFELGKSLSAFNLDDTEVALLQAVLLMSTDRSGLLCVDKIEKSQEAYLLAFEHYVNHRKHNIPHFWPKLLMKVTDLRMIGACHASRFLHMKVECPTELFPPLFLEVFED
Excerpt: (§1) Experimental Example 1: Detection of Agonist Activities of Compounds Against THRα/β Based on Time-Resolved Fluorescence Resonance Energy Transfer (THR-FRET)
(§2) 1. Construction of THRα/β Overexpression Vectors
(§3) By visiting NCBI, the THRα/β LBD domain sequences were found. The pET21-His-GST-dLBT-THRα LBD and pET21-His-GST-dLBT-THRβLBD overexpression vectors were constructed by the fusion method, and sequenced to confirm the accuracy of the sequences.
(§4) 2. Prokaryotic Expression of Recombinant Proteins in E. coli
(§5) The THRα LBD and THRβLBD overexpression vectors confirmed by sequencing were transfected into E. coli cells BL21 (DE3), and spread on an ampicillin-resistant agar plate. Monoclones were picked out and amplified in an LB medium, and transferred into 1 L LB at a ratio of 1:100 for large-scale culture. When the OD value was at 0.8 to 1.2, 0.5 mM isopropyl-beta-D-thiogalactopyranoside (IPTG) was added, and induced overnight at 18° C. The bacteria were harvested, disrupted, and purified via the GST column and the molecular sieve to obtain two proteins His-GST-dLBT-THRα LBD and His-GST-dLBT-THRβLBD.
(§6) 3. Preparation of Compounds and Formulation of Reaction System
(§7) The proteins were taken out from a refrigerator at −80° C. The protein s with the GST-tagged THRα/p LBD domain and the Eu-labelled GST antibodies were thawed slowly on ice, and an assay buffer containing a final concentration of 5 mM dithiothreitol (DTT) was formulated.
(§8) 3.1 Preparation of Compounds
(§9) The starting concentration of the compound was 10 μM (in DMSO). The compound (100 μM in DMSO) was subjected to 3-fold isogradient dilution with DMSO to obtain a total of 11 isogradient concentrations. Subsequently, the above compounds at the isogradient concentration were further subjected to 50-fold dilution with an assay buffer containing 5 mM DTT.
(§10) 3.2 Formulation of THR-FRET Reaction System
(§11) The final concentrations of all components were calculated based on a system with a final volume of 20 µL per well. To […] of assay buffer containing 5 mM DTT, the GST-tagged THRα/β proteins, the SRC2 ([…]) polypeptide, XL665 (Cisobio, #610SAXLB), and the Eu-labeled GST antibody were added, and the final concentrations were 2 nM, 200 nM, 0.05 nM, and 7.6 nM respectively to formulate 18 μL of reaction mixture of the proteins, polypeptide, and antibody per well.
(§12) 18 μL of reaction mixture and 2 μL of diluted compound were added into an optiplate-384-well plate, and reacted at room temperature for 24 h.
(§13) The plate was read using an MD i3x multi-mode microplate reader with the excitation and emission wavelengths of 340 nm and 665 nm, respectively. The intensity of light at a wavelength of 616 nm generated by europium excited by 340 nm wavelength light from the MD i3x multi-mode microplate reader was used as the background. According to the different activation degrees of different compounds against THRα and THRβ, the intensity of the emission light at a wavelength of 665 nm generated by exciting XL665 with the exciting light at a wavelength of 616 nm was varied. The intensity ratio between these two light wavelengths (665 nm, 616 nm) was used as the activation activity of the compound against THRα or THRβ, and was normalized against the ratio in the vehicle DMSO group. The dose-response curve was fitted with four parameters using the GraphPad Prism 6.0 software, and the EC50 value was calculated.

[2] = target: T2, THRβ LBD (His-GST-dLBT-THRβLBD) (Homo sapiens, UniProt P10828); assay: THR-FRET (time-resolved fluorescence resonance energy transfer) agonist activity assay, THRβ; format: biochemical; conditions: for pEC50: 24 h at room temperature; for Selectivity (THRα/THRβ): ratio of EC50 THRα/THRβ
T2 construct: made in house; host or cells: E. coli BL21 (DE3)
T2 sequence (P10828 217-461 limits assumed): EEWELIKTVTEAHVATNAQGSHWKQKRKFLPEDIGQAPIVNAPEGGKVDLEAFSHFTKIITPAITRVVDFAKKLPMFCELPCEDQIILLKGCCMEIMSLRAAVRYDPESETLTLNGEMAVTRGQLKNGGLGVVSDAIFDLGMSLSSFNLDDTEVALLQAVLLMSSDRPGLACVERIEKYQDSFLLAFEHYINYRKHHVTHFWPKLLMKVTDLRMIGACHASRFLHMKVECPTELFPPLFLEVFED
Excerpt: as §1, §2, §3, §4, §5, §6, §7, §8, §9, §10, §11, §12, §13

THRβ (pGAL4-THRβ-LBD) = target: T3, THRβ (pGAL4-THRβ-LBD) (Homo sapiens, UniProt P10828); assay: Reporter gene (Dual-Glo luciferase) agonist activity assay in HEK293T cells, THRβ; format: cell-based; conditions: ratio of EC50 THRα/THRβ
T3 construct: expressed in transfected cells; host or cells: HEK293T
T3 sequence (P10828 217-461): T2 sequence (P10828 217-461 limits assumed)
Excerpt: Experimental Example 2: Detection of Agonist Activities of Compounds Against THRα and THRβ Based on Reporter Gene Activity Assay Method
1.1 Construction and Preparation of Plasmids pGAL4-THR-LBD and pG5-Luc
The pGAL4-THRα-LBD and pGAL4-THRβ-LBD plasmids used in the reporter gene assay system were constructed by a conventional molecular cloning method comprising the following main steps: the cDNA sequences of THRα (NM_003250) and THRβ(NM_000461) corresponding to the amino acid sequences of THRα (163-407AA) and THRβ(217-461AA) were inserted into the BamHI and NotI enzyme digestion sites of the pGAL4 vector by the PCR technique respectively to obtain the pGAL4-THRα-LBD and pGAL4-THRβ-LBD plasmids; the pG5-Luc (#E249A) and pRL-TK (#E2241) plasmids were purchased from Promega; the plasmids were transfected into the E. coli DH5a by the CaCl2 method, and after further culture and amplification, the plasmids were purified by Plasmid Extraction Kits (TIANGEN, #D107) to obtain the corresponding plasmid DNAs.
1.2 Co-Transfection of Plasmids into HEK293T Cells and Treatment with Compounds
The HEK293T cells were inoculated into a 96-well plate at a density of 1×10^4/well the day before plasmid transfection. Cell transfection was conducted according to the instructions of the transfection reagent FuGENE® HD (Promega, #E2311). The main steps were as follows: taking one well as an example here, the plasmids pGAL4-THRα-LBD or pGAL4-THRβ-LBD, pG5-Luc, and pRL-TK were added in the proportions of 20 ng, 50 ng, and 5 ng to 10 μL of Opti-MEM™ I medium (Gibco, #11058021) and mixed well; subsequently, 0.25 μL of FuGENE® HD was added, mixed well, and then left at room temperature for 5 min; afterwards, […] was added to the cell wells containing 100 μL of culture medium. After cell co-transfection for 6 h, the compound was diluted in a 3-fold gradient with dimethyl sulfoxide at the highest concentration of 1 μM. The compound was added to the cell culture medium at a total of 10 concentrations for treatment for 24 h. There were a total of two duplicate wells for each concentration. Triiodothyronine (T3) was used as the positive control.
1.3 Dual-Glo Luciferase Assay
After the cells were treated with the compound for 24 h, the cells were assayed according to the instructions of Dual-Glo® Luciferase Assay System (Promega, #E2940). The main steps were as follows: 50 μL of culture medium was aspirated from each well and discarded, and then 50 μL of Dual-Glo® Luciferase reagent was added and oscillated at room temperature for 10 min; 80 μL of lysis reaction solution was measured into a white opaque optiPlate-96-well plate, and the luminescence signal value (Firefly-Luc) of the Firefly luciferase was detected using an MD i3x multi-mode microplate reader; 40 μL of Dual-Glo® Stop & Glo® reagent was then added, and oscillated at room temperature for 10 min; the luminescence signal value (Renilla-Luc) of the Renilla luciferase was then detected using an MD i3x multi-mode microplate reader. The Firefly-Luc/Renilla-Luc ratio was used as the activation activity of the compound against THR, and was normalized against the ratio in the vehicle DMSO group; the dose-response curve was fitted with four parameters using the GraphPad Prism6.0 software, and the EC50 value was calculated.

SMILES	pEC50 [1]	pEC50 [2]	Selectivity (THRα/THRβ) [2]	Selectivity (THRα/THRβ) (THRβ (pGAL4-THRβ-LBD))
Cc1cccc2c1c(=O)ccn2Cc1c(Br)cc(-n2nc(C(F)F)c(=O)[nH]c2=O)cc1Br [Compound 49]	7.00 to 7.30	7.00 to 7.30	†† (10 > THRα/β > 1)	† (5 ≥ THRα/β)
Cc1nn(-c2cc(Cl)c(Cn3ccc(=O)c4c(C)cccc43)c(Cl)c2)c(=O)[nH]c1=O [Compound 44]	6.00 to 7.00	7.00 to 7.30	†† (10 > THRα/β > 1)	† (5 ≥ THRα/β)
Cc1nn(-c2cc(Cl)c(Cn3ccc(=O)c4ccccc43)c(Cl)c2)c(=O)[nH]c1=O [Compound 41]	5.00 to 6.00	6.00 to 7.00	†† (10 > THRα/β > 1)	† (5 ≥ THRα/β)
Nc1nn(-c2cc(Cl)c(Cn3ccc(=O)c4ccccc43)c(Cl)c2)c(=O)[nH]c1=O [Compound 32]	5.00 to 6.00	6.00 to 7.00	†† (10 > THRα/β > 1)	† (5 ≥ THRα/β)
Cc1nn(-c2cc(Br)c(Cn3ccc(=O)c4ccccc43)c(Br)c2)c(=O)[nH]c1=O [Compound 43]	6.00 to 7.00	7.00 to 7.30	†† (10 > THRα/β > 1)	† (5 ≥ THRα/β)
O=c1cnn(-c2cc(Cl)c(Cn3ccc(=O)c4c(Cl)cccc43)c(Cl)c2)c(=O)[nH]1 [Compound 13]	5.00 to 6.00	6.00 to 7.00	†† (10 > THRα/β > 1)	† (5 ≥ THRα/β)
O=c1cnn(-c2cc(Br)c(Cn3ccc(=O)c4ccccc43)c(Br)c2)c(=O)[nH]1 [Compound 2]	6.00 to 7.00	> 7.30	†† (10 > THRα/β > 1)	† (5 ≥ THRα/β)
Cc1nn(-c2cc(Cl)c(Cn3ccc(=O)c4c(C)cccc43)c(Br)c2)c(=O)[nH]c1=O [Compound 46]	7.00 to 7.30	> 7.30	†† (10 > THRα/β > 1)	† (5 ≥ THRα/β)
O=c1[nH]c(=O)n(-c2cc(Cl)c(Cn3ccc(=O)c4ccccc43)c(Cl)c2)nc1CF [Compound 37]	6.00 to 7.00	7.00 to 7.30	†† (10 > THRα/β > 1)	†††† (THRα/β > 20)
[2H]C(c1c(Br)cc(-n2nc(C(F)F)c(=O)[nH]c2=O)cc1Br)n1ccc(=O)c2ccccc21 (stereo not drawn) [Compound 72]	7.00 to 7.30	> 7.30	†† (10 > THRα/β > 1)	††† (20 ≥ THRα/β > 10)
O=c1cnn(-c2cc(Cl)c(Cn3ccc(=O)c4ccccc43)c(Cl)c2)c(=O)[nH]1 [Compound 1]	5.00 to 6.00	6.00 to 7.00	†† (10 > THRα/β > 1)	† (5 ≥ THRα/β)
Cc1cccc2c1c(=O)ccn2Cc1c(Cl)cc(-n2nc(C(F)F)c(=O)[nH]c2=O)cc1Cl [Compound 47]	6.00 to 7.00	> 7.30	†† (10 > THRα/β > 1)	† (5 ≥ THRα/β)
O=c1[nH]c(=O)n(-c2cc(Cl)c(Cn3ccc(=O)c4ccccc43)c(Cl)c2)nc1C(F)F [Compound 28]	6.00 to 7.00	> 7.30	†† (10 > THRα/β > 1)	†††† (THRα/β > 20)
O=c1cnn(-c2cc(Cl)c(Cn3ccc(=O)c4ccccc43)c(Br)c2)c(=O)[nH]1 [Compound 3]	6.00 to 7.00	6.00 to 7.00	†† (10 > THRα/β > 1)	† (5 ≥ THRα/β)
[2H]C(F)(F)c1nn(-c2cc(Br)c(Cn3ccc(=O)c4ccccc43)c(Br)c2)c(=O)[nH]c1=O [Compound 71]	7.00 to 7.30	> 7.30	†† (10 > THRα/β > 1)	†††† (THRα/β > 20)
Cc1cccc2c1c(=O)ccn2Cc1c(Br)cc(-n2ncc(=O)[nH]c2=O)cc1Br [Compound 18]	7.00 to 7.30	> 7.30	†† (10 > THRα/β > 1)	†† (10 ≥ THRα/β > 5)
Cc1cccc2c1c(=O)ccn2Cc1c(Cl)cc(-n2ncc(=O)[nH]c2=O)cc1Br [Compound 17]	6.00 to 7.00	> 7.30	†† (10 > THRα/β > 1)	††† (20 ≥ THRα/β > 10)
Cc1cccc2c1c(=O)ccn2Cc1c(Cl)cc(-n2ncc(=O)[nH]c2=O)cc1Cl [Compound 14]	6.00 to 7.00	6.00 to 7.00	†† (10 > THRα/β > 1)	† (5 ≥ THRα/β)
